Results on two molecules are retold here after patent US20240165226A1, “COMBINATION TREATMENT OF CD38-EXPRESSING TUMORS” (GENMAB A/S, priority 2006, published 2024).

For assay [1], the system named is JK6L (a multiple myeloma cell line). As to the kind of experiment: ADCC set up II, JK6L cells. The assay is classed as cell-based. As to conditions: in words. The procedure: Human blood from human volunteers (university Erlangen, Erlangen, Germany) was diluted twice in RPMI 1640 and blood cells were layered on Ficoll (Lymphocyte Separation Medium […], 710 g, RT, 20 min; BioWhittaker, Cambrex Bio Science Verviers, Verviers, Belgium, cat. 17-829E, lot no. 0148 32). Peripheral blood mononuclear cells (MNCs) were collected from the interphase, washed and resuspended in RPMI 1640 culture medium supplemented with 10% FCS, 2 mM L-glutamine, 5 U/ml penicillin, 50 μg/ml streptomycin (all derived from BioWhittaker) to which 25 mM HEPES (BioWhittaker) was added.
Target B-cells (fresh plasma cell leukemia tumor cells, JK6L and AMO-1 B-cell lines, obtained from Dr. T. Valerius, University of Erlangen, Erlangen, Germany) were labeled with 20 μCi ^51Cr (Amersham Biosciences, Uppsala, Sweden) for 2 hours. After extensive washing in RPMI-10, cells were adjusted to 1×10^5 cells/ml. […] After incubation (3 hr, 37° C.), assays were stopped by centrifugation, and 51Cr release from triplicates was measured in counts per minute (cpm) in a scintillation counter. Percentage of cellular cytotoxicity was calculated using the following formula: […]
with maximal ^51Cr release determined by adding perchloric acid (3% final concentration) to target cells, and basal release was measured in the absence of sensitizing antibodies and effector cells.

A further assay concerns Daudi-luc tumor cells. As to the kind of experiment: In vivo SCID-luciferase experiments. Details: species or system SCID mice. The source says: In this model tumor cells are transfected with firefly luciferase. Upon administration of luciferin (Molecular Probes, Leiden, The Netherlands) to the mice the labeled cells can be detected in vivo by bioluminescent imaging using a highly sensitive CCD camera, cf. Wetterwald et al., American Journal of Pathology 160(3), 1143-1153 (2002).
Daudi cells were transfected with gWIZ luciferase from Gene Therapy Systems (San Diego, CA) and cultured in RPMI with 10% FCS, Pen/Strep, Sodium Pyruvate and 1 μg/ml puromycin (Sigma). Cells were analysed for luciferase expression (expressed in RLU/1×10^5 cells) in a luminometer and for CD38 expression by FACS. 2.5×10^6 luciferase-transfected Daudi cells/mouse were injected i.v. into SCID mice. Mice were treated with -003, -005, isotype control antibody (HuMab-KLH) or rituximab (anti-CD20 antibody). Antibodies were injected intraperitoneally. Four treatment settings were used (see Table 4). In the preventive setting, antibody (100 μg/mouse) and cells were administered simultaneously. In therapeutic setting I, antibody (300 μg/mouse) was administered 7 days after administration of cells. In therapeutic setting II, antibody (10 μg/mouse) was administered 14 days after administration of cells. In therapeutic setting III, antibody (100 μg/mouse) was administered 7 days after administration of cells. For imaging, mice were anesthetized by i.p. injection of a mixture of ketamine/xylazine/atropine. Synthetic D-Luciferin (sodium salt, Molecular Probes) was given i.p. at a dose of 25 mg/ml. Mice were then placed in a light tight box and after 3 min, imaging was started using a VersArray 1300B liquid nitrogen cooled CCD detector (Roper Scientific). Photons emitted from the luciferase were counted over an exposure period of 5 min. Under illumination black and white images were made for reference. MetaVue software (Universal Imaging Corp) was used for data collection and image analysis. Statistical significance of differences between groups was established using one-way analysis of variance with a Newman-Keuls post test using GraphPad PRISM version 3.02 (Graphpad Software Inc).

Assay [2] relates to luciferase-transfected Daudi cells. The assay is described as follows: Annexin-V apoptosis assay. The assay is classed as cell-based. The following applies: 5 μg/ml. The procedure: Apoptosis assay was carried out according to the manufacturer's instructions (Annexin-V Apoptosis kit, BD Biosciences, Alphen a.d. Rijn, Netherlands). In short, CD38 mAbs were added to 2.5×10^5 cells (luciferase-transfected Daudi cells, in 0.5 ml RPMI^++ in a 24-wells plate), in a concentration of 5 μg/ml -003 or -005 or an anti-CD20 antibodies alone or in the presence of cross-blocking rb-anti-hIgG (50 μg/ml).
After incubation (37° C., 5% CO2, 20 hr), cells were harvested carefully, and washed with Binding Buffer (1200 rpm, 4° C., 5 min, BD Biosciences). Pellet was resuspended in 100 μl Binding Buffer. Then, 5 μl Annexin-V-FITC (BD Biosciences) and 10 μl PI (BD Biosciences) was added to the suspension and incubated for 15 minutes at RT. 400 μl Binding Buffer was added and the samples were measured (PI readout in FL2). For analysis of apoptotic cells, all Annexin-V-positive cells were counted by flow cytometry using a FACScalibur flow cytometer with CellQuest pro software (BD Biosciences). At least 10,000 events were collected for analysis. This population includes both PI-positive as well as PI-negative cells.

Another assay deals with T1, HA-tagged CD38 (Homo sapiens, UniProt P28907).
T1 construct: The extracellular domain of human CD38 was amplified from plasmid pCIpuroCD38; made in house
As to the kind of experiment: Surface plasmon resonance (Biacore 3000). The assay is classed as binding. The following applies: 25° C., mean of 3 experiments±SD. The method, then:
Binding of -003 and -005 to CD38 was tested using surface plasmon resonance. Briefly, purified antibodies were immobilized on a CM-5 sensor chip (Biacore, Uppsala, Sweden) via anime coupling. HA-tagged CD38 (see Example 3) was flowed over, and the binding of antigen to mAb was detected by a change in refractive index at the surface of the chip using a Biacore 3000 (Biacore).

For “-005: human monoclonal IgG1 anti-CD38 antibody, VL region SEQ ID No:12 and VH region SEQ ID No:17”, the “lysis of JK6L by ADCC” value in assay [1] is reported as “lysis is induced”. Moreover, the “inhibition of growth of tumor cells” value in the assay on Daudi-luc tumor cells (preventive setting, 100 μg/mouse, day 0, i.p.) was “inhibit growth of tumor cells”. Also, the “inhibition of growth of tumor cells” value with Daudi-luc tumor cells (therapeutic setting I, 300 μg/mouse, day 7, i.p.) is “inhibit growth of tumor cells”. Further, the induction of apoptosis entry in assay [2] (after cross-linking with rb-anti-hIgG (50 μg/ml)) was “less able to induce apoptosis”. In addition, the induction of apoptosis result in assay [2] (without cross-linking) is recorded as “do not induce apoptosis”. In addition, in the assay with HA-tagged CD38, the KA was 1.7e+08 ± 3.68e+07 M⁻¹, binding was put at a Kd of 6.06 nM, the ka came to 88800 ± 19500 M⁻¹ s⁻¹ and the kd worked out at 0.000522 ± 1.16e-05 s⁻¹.

B1: -024: human monoclonal IgG1 anti-CD38 antibody, VL region SEQ ID No:22 and VH region SEQ ID No:27 (antibody, listed as Homo sapiens, V domains shown)
VH: EVQLVQSGAEVKKPGESLKISCKGSGYSFSNYWIGWVRQMPGKGLEWMGIIYPHDSDARYSPSFQGQVTFSADKSISTAYLQWSSLKASDTAMYYCARHVGWGSRYWYFDLWGRGTLVTVSS
VL: EIVLTQSPATLSLSPGERATLSCRASQSVSSYLAWYQQKPGQAPGLLIYDASNRASGIPARFSGSGSGTDFTLTISSLEPEDFAVYYCQQRSNWPLTFGGGTKVEIK
For B1, the “inhibition of Daudi-luc tumor cell growth” value in the assay with Daudi-luc tumor cells (therapeutic setting III, 100 μg/mouse, day 7, i.p.) is recorded as “clear inhibition”.
